Activity calls are given as the source filed them. The calls are words filed in the database; no cut-off is given here.
Key:
U-937 = assay: Cytotoxicity against human U-937 cells by MTT assay; assay type: functional, cell-based
[1] = target: T1, Protein kinase C epsilon type (Homo sapiens) (UniProt Q02156); assay: Binding affinity to PKCepsilon (unknown origin)
T1 sequence (whole entry): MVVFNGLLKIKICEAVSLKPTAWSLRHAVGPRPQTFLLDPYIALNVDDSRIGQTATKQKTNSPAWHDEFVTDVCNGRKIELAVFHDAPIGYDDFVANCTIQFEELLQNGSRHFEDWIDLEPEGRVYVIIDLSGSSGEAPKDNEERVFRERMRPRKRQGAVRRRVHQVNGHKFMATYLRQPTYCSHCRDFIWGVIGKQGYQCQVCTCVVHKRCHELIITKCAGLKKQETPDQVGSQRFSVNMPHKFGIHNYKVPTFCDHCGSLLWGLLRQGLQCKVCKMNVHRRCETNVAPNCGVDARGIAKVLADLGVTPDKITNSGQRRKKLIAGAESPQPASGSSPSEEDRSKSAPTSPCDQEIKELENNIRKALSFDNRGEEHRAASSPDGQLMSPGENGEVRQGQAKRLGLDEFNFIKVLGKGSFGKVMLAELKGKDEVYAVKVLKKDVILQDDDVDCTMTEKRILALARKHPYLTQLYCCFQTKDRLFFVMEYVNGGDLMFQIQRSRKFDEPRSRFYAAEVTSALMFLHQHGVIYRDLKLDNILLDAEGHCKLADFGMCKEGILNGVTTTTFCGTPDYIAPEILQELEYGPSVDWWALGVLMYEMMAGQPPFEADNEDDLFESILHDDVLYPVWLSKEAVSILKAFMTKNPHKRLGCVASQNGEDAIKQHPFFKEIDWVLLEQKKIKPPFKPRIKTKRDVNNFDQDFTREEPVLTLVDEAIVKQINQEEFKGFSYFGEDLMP

[2] = target: Vascular endothelial growth factor receptor 3 (Homo sapiens) (UniProt P35916); assay: Binding affinity to VEGFR3 (unknown origin)
Chain of Vascular endothelial growth factor receptor 3 (Homo sapiens) (P35916 whole entry): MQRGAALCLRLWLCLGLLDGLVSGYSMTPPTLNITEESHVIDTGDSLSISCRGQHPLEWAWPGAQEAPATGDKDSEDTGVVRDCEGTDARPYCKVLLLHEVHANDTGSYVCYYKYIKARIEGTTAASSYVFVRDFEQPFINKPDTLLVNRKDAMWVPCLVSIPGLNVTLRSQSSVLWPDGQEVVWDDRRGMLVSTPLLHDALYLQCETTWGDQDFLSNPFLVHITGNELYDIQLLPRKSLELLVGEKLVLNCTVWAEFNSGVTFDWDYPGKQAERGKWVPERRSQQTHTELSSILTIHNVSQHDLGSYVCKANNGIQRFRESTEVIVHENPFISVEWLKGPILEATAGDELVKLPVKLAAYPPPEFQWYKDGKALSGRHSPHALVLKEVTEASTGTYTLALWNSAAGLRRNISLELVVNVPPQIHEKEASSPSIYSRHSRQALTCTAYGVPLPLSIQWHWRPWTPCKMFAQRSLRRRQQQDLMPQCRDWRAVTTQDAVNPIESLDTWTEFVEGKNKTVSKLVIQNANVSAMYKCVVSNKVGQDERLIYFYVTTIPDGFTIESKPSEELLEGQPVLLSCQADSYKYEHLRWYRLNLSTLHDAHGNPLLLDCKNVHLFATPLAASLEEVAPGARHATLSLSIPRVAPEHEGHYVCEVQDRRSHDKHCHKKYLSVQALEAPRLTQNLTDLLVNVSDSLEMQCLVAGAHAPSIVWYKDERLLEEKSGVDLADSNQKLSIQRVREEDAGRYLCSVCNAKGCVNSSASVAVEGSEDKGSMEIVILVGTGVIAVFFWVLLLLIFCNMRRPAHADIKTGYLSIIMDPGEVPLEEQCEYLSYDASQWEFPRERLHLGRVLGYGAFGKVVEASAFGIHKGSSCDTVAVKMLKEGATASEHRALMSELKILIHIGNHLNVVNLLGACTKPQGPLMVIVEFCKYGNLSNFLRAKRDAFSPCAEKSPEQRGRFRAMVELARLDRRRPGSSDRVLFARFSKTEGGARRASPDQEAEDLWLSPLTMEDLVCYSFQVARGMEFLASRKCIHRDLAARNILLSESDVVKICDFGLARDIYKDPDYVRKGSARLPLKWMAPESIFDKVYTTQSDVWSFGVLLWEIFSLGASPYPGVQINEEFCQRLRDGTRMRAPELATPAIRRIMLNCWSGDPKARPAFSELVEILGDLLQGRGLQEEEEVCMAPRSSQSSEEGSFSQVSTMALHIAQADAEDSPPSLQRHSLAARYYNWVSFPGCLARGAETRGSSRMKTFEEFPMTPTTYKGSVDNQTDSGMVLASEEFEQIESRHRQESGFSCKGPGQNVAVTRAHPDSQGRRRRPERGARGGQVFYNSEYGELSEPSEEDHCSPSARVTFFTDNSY

Tubulin (Homo sapiens) = Tubulin (Homo sapiens) (UniProt P68371+Q9H4B7+P0DPH7+P68366+Q13509+Q71U36+P04350+Q3ZCM7+P07437+P68363+Q9BQE3+Q6PEY2+Q13885+Q9BVA1+Q9BUF5); assay: Inhibition of tubulin polymerization (unknown origin) at 10 uM; assay type: protein-complex assay

Structure (SMILES) | IC50 (U-937) | further results
CCCN1CC(c2ccc(OC)c(OC)c2)=C(c2cn(C(=O)OCC)c3ccccc23)C1=O | 5 µM | –
COc1ccc(C2=C(c3cn(C)c4ccccc34)C(=O)NC2)cc1OC | – | Activity [1]: 47%; Activity [2]: 50%
CCCN1CC(c2ccc(OC)c(OC)c2)=C(c2cn(C)c3ccccc23)C1=O | 5 µM | –
CCCN1CC(c2ccc(OC)c(OC)c2)=C(c2c[nH]c3ccccc23)C1=O | 35 µM | –
COc1ccc(C2=C(c3c[nH]c4ccccc34)C(=O)OC2)cc1OC | 9 µM | –
COc1ccc(C2=C(c3cn(C)c4ccccc34)C(=O)OC2)cc1OC | 1 µM | –
CCOC(=O)n1cc(C2=C(c3ccc(OC)c(OC)c3)COC2=O)c2ccccc21 | 0.3 µM | inhibition (Tubulin (Homo sapiens)): Active

Source: ChEMBL document CHEMBL4814032, “Discovery of an indole-substituted furanone with tubulin polymerization inhibition activity” (Bioorg Med Chem Lett, 2021)
